Target: T1, angiotensin converting enzyme (Oryctolagus cuniculus, UniProt P12822)
T1 sequence (P12822 34-1310): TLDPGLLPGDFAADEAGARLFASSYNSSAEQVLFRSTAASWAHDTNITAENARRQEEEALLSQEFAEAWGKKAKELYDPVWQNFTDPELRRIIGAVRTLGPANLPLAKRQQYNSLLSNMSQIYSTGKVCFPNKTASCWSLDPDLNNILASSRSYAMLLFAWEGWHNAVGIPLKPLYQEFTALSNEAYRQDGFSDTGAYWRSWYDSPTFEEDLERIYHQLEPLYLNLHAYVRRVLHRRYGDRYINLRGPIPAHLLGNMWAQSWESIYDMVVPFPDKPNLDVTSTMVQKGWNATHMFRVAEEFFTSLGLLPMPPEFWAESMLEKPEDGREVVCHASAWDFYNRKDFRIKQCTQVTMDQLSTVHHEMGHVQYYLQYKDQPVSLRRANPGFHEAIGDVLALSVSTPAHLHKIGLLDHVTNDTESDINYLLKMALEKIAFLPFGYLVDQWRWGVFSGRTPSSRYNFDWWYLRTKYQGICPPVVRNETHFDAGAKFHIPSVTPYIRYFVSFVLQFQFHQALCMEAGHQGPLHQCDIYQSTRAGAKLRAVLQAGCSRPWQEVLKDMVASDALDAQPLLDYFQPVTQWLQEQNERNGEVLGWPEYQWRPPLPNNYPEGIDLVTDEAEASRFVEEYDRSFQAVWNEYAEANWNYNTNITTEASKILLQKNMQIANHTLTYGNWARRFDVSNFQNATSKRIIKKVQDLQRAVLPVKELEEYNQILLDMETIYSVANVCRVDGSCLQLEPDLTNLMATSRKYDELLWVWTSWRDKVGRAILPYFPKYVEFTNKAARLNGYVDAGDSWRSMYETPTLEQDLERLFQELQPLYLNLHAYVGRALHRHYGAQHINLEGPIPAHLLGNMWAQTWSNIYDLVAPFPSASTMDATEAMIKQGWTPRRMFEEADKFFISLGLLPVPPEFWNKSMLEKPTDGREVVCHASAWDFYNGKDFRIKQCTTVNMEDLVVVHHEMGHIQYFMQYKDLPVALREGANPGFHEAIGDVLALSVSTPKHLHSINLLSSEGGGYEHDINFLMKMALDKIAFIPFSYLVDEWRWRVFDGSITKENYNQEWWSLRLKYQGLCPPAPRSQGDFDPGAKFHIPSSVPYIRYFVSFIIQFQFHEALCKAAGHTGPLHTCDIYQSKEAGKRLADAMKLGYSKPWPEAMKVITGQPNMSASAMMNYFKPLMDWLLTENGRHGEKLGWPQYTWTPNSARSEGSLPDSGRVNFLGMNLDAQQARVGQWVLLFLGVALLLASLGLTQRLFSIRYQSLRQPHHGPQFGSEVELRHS
Experiment: in vitro inhibition of angiotensin converting enzyme (hippuryl-histidyl-leucine cleavage)
Type: biochemical
Conditions: substrate hippuryl-histidylleucine 2 mM, pH 8.3, 24 minutes at 37° C.; esters cleaved by hog liver esterase before test
Protocol: The activity of the present compounds in inhibiting angiotensin converting enzyme in vitro can be determined by the following test.
The method used is based on the method of Cushman and Cheung (Biochem. Pharmacol., 20. 1637-1648) incorporating the modifications introduced by Hayakari et al (Anal. Biochem., 84. 361-369). The substrate (hippuryl-histidylleucine, 2 mM) is incubated with angiotensin converting enzyme in the presence or absence of various concentrations of test substance in potassium phosphate buffer (pH 8.3; 100 mM) containing sodium chloride (300 mM) for 24 minutes at 37° C. (total value 500 μl). (if the test substance is an ester, it is appropriate to cleave it by means of hog liver esterase before carrying out the test). The reaction is terminated by the addition of 3 ml of potassium phosphate buffer (pH 8.3; 200 mM) at 0° C. 2,4,6-Trichloro-s-triazine (3%) in 1.5 ml of dioxan is added and the mixture is agitated until the yellow chromophore has developed fully. The samples are then centrifuged to remove any precipitate which has formed. The yellow chromophore formed by the reaction of the 2,4,6-trichloro-s-triazine with free hippuric acid is measured spectrophotometrically at 382 nm. […]

IC50: 9.6 nM
Compound: O=C(O)[C@@H]1CCCN2CCC[C@H](CP(=O)(O)O)C(=O)N12 [Compound A, Octahydro9(S)--phosphonomethyl10-oxo-6H--pyridazo[1,2a][1,2]diazepine1(S)-carboxylic acid]

From patent US4743687A, “Pyridazo (1,2-a) (1,2) diazepine derivatives” (Hoffmann-La Roche Inc., priority 1985, dated 1988)
